{"source": "patent US20050137243A1", "about": "“Antagonists of melanin concentrating hormone effects on the melanin concentrating hormone receptor” (priority 2003, published 2005)", "key": {"[1]": {"assay": "Efficacy: % weight loss in diet-induced obese (DIO) mice after two weeks of dosing", "format": "in vivo", "conditions": "100 mpk BID, PO, relative to vehicle control animals"}, "[2]": {"assay": "Pharmacokinetic drug levels in whole brain after oral dose in DIO-mice", "format": "in vivo", "conditions": "10 mpk PO, 0.5-24 h"}}, "data": [{"smiles": "O=C(Nc1ccc(Oc2ccccc2)cc1)Nc1ccc2c(cnn2CCN2CCCC2)c1", "note": "[Example 24, N-(4-phenoxyphenyl)-N′-[1-(2-pyrrolidin-1-ylethyl)-1H-indazol-5-yl]urea]", "values": [{"measurement": "DIO Mice % weight loss @ 14 days", "setting": "[1]", "result": 15, "unit": "%"}, {"measurement": "Brain Conc. AUC", "setting": "[2]", "result": 1428, "unit": "ng·h/g"}]}]}
